From patent US5098900A, “3(2H)pyridazinone, process for its preparation and anti-allergic agent containing it” (Nissan Chemical Industries Ltd., priority 1984, dated 1992)
Read-outs that look alike come from different tables or passages of the source.

Experiments:
SRS-A = SRS-A antagonism in guinea-pig ileum (SRS-A-induced contraction); assay type: cell-based; conditions: 1 min, test compound 5×10^-7 g/ml, isolated guinea-pig ileum; for inhibition at 0.5 µg/mL: Cavia porcellus
Protocol: (i) SRS-A antagonism in quinea-pig ileum
SRS-A antagonism was determined against the contraction induced by SRS-A in isolated guinea-pig ileum. The SRS-A was prepared in accordance with the method of Brocklehurst (J. Physiol., 151, 416, 1960) and Kohno and Parker (J. Immunol., 125, 446, 1980). Adult male guinea-pigs (200-250 g) were sensitized with chick egg albumin (EA), 100 mg subcutaneously and 100 mg intraperitoneally. Three weeks later the animals were killed by a blow on the head and lungs were perfused free of blood with Tyrode solution passed through the right ventricle. Isolated lungs were chopped into pieces (1 mm^3) by a scissors in Tyrode solution and filtrated with gauze, and then 1.0-1.3 g of chopped lung fragments were distributed into individual tubes (9.7 ml of Tyrode solution/tube). EA solution (0.3 ml) at a 3×10^-4 g/ml final concentration was added to the tubes and incubated for 20 min at 37° C., and then the supernatant was used for the SRS-A antagonism.
Assay for SRS-A antagonism was performed as follows: Ileum preparations isolated from male guinea-pig (300-400 g) were suspended under 0.5 g tension in organ baths (5 ml) containing Tyrode solution maintained at 30° C. and gassed with 95% O2 +5% CO2. After the repeated responses to histamine (10^-7 g/ml) was established, the contractile response to SRS-A (0.5 ml) was carried out in the presence of 10^-6 M atropine and 10^-6 M pyrilamine. Test compounds dissolved in 100% dimethyl sulfoxide were added to the organ baths (final concentration of 5×10^-7 g/ml) 1 min prior to the SRS-A addition, and SRS-A-induced contractions were compared with those of control (SRS-A-induced contraction before the treatment). The SRS-A antagonism (%) =[1.0 - (SRS-A-induced contraction in test compound)/control]×100

LTC4 = LTC4 antagonism in isolated guinea-pig trachea (LTC4-induced contraction); assay type: cell-based; conditions: 5 min; for inhibition at 10 µg/mL: Cavia porcellus, read-out: LTC4 antagonism
Protocol: (ii) LTC4 and LTD4 antagonisms in guinea-pig trachea
Antagonism for LTC4 and LTD4 were determined in isolated guinea-pig trachea prepared as spiral strip. 10 Tracheal preparations were suspended under 1 g tension in […] and they were incubated for 1 hr prior to use. Contractile responses to LTC4 (2×10^-8 g/ml) and LTD4 (2×10^-8 g/ml) were obtained after the maximal response to histamine (10^-4 M). Test compounds dissolved in 100% dimethyl sulfoxide were added to the organ baths (final concentration of 10^-5 g/ml) 5 min prior to LTC4 and LTD4 addition, and then contractile responses to LTC4 and LTD4 were compared with those of control which was obtained from a paired trachea in the absence of test compounds. LTC4 - and LTD4 -induced contractions were expressed as a percentage of the maximal response to histamine. The antagonism was determined as follows: Antagonism (%)=(1.0-% contraction in test/% contraction in control)×100

LTD4 [1] = assay: Effect on bronchoconstriction induced by intravenous administration of LTD4; assay type: in vivo, guinea-pig; conditions: 2 mg/kg, i.v., in Tween 80; LTD4 2 μg/kg i.v.
Protocol: (iv) Effect on bronchoconstriction induced by intravenous (i.v.) administration of LTD4
Bronchoconstrictions induced by i.v. administration of LTD4 in guinea-pigs (350-450 g) were measured as described in anaphylactic bronchoconstriction. Guinea-pigs were anaesthetized with urethane (1.5 g/kg) and the trachea was cannulated to record total pulmonary resistance. The right jugular vein was cannulated for the administration of the all agents. The guinea-pigs were artificially ventilated by a small respirator set at a stroke volume of 5 ml and a rate of 50 breaths per min. LTD4 (2 μg/kg)-induced bronchoconstriction was shown by the increase in air overflow volume. After the response to histamine (5 μg/kg) was checked, the first response to LTD4 was obtain-d as control. […] Inhibition (%) of the bronchoconstriction was determined as follows: Inhibition (%) =(1.0 -peak value in the second response/peak value in the first response)×100.

[2] = tested on: antigen-induced anaphylactic bronchoconstriction; assay: Effect on anaphylactic bronchoconstriction in passively sensitized guinea-pig; assay type: in vivo; conditions: 2 mg/kg, i.v.
Protocol: (iii) Effect on anaphylactic bronchoconstriction in passively sensitized guinea-pig
Male guinea-pigs (350-450 g) were passively sensitized with intravenous (i.v.) injection of 0.125 ml rabbit anti-EA serum (Cappel Laboratories) 1 day preceding the experiment. […] The right jugular vein was cannulated for the administration of the all agents and trachea was cannulated to record total pulmonary resistance. Guinea-pigs were artificially ventilated by a small animal respirator (Shinano, Model SN-480-7) set at a stroke volume of 4-5 ml and a rate of 50 breaths per min. […] The increase in air overflow volume was expressed as a percentage of the maximum bronchoconstriction obtained by clamping off the trachea. Following surgical preparation, the animals were pretreated with indomethacin (1.0 mg/kg, 10 min), pyrilamine (2 mg/kg, 6 min) and propranolol (0.1 mg/kg, 5 min) prior to the EA challenge (0.1 or 10 mg/kg). All test compounds, 2 mg/kg in 3% Tween 80 or 3% PEG-400, were administered 1 min before the EA challenge. Inhibition (%) of bronchoconstriction was determined as follows Inhibition (%)=(1.0% -maximum bronchoconstriction in test/% maximum bronchoconstriction in control) ×100.
In the Table, the dose of EA was 10 mg/kg, and each compound was dissolved or suspended in 3% Tween 80.
In the Table, the dose of EA was 0.1 mg/kg.
*: PEG represents polyethylene glycol400.

ddY strain male mice = assay: Acute toxicity test, method-(1), oral administration; assay type: in vivo; conditions: 300 mg/kg, P.O., 7 days after administration
Protocol: The lethal ratio was determined in ddY strain male mice (4 weeks old) at 7 days after the oral administration of test compounds.

LTD4 [3] = assay: LTD4 antagonism in isolated guinea-pig trachea (LTD4-induced contraction); assay type: cell-based; conditions: Cavia porcellus, 5 min, test compound 10^-5 g/ml, LTD4 2×10^-8 g/ml
Outline: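 Spiral strips of isolated guinea-pig trachea were held at 1 g tension in organ baths and incubated for 1 hr. After a maximal histamine (10^-4 M) response, test compounds in 100% dimethyl sulfoxide were added 5 min before LTD4 (2×10^-8 g/ml). Contraction, as percent of histamine maximum, was compared with a paired untreated control trachea to give antagonism (%).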

[4] = test compound 10^-5 g/ml, LTC4 2×10^-8 g/ml, guinea-pig trachea

SMILES | inhibition at 0.5 µg/mL (SRS-A) | inhibition at 10 µg/mL (LTC4; [4]) | also measured
CC(C)c1ccc(CNc2cnn(C(C)(C)C)c(=O)c2Cl)cc1 [Compound No. 5] | 74% | 67% | –
CN(C)c1ccc(CNc2cnn(C(C)(C)C)c(=O)c2Cl)cc1 [Compound No. 25, 4-Chloro-5-(4-dimethylaminobenzylamino)-2-t-butyl-3(2H)-pyridazinone] | – | – | SRS-A antagonism (SRS-A): 81%
CC(C)(C)n1ncc(NCc2ccccc2)c(Cl)c1=O [Compound No. 1] | 14% | – | Inhibition of LTD4-induced bronchoconstriction (LTD4 [1]): 23%
CCOc1ccc(CNc2cnn(C(C)(C)C)c(=O)c2Cl)cc1 [Compound No. 10] | 40% | 50% | Inhibition of anaphylactic bronchoconstriction ([2]; EA 10 mg/kg, 3% Tween 80): 31%; Lethal ratio (ddY strain male mice): 0/3
COc1ccc(CNc2cnn(C(C)(C)C)c(=O)c2Cl)cc1C [Compound No. 12] | 73% | 67% | –
CN(C)c1ccc(CNc2cnn(C(C)(C)C)c(=O)c2Cl)cc1.Cl [Compound No. 44, 4-Chloro-5-(4-dimethylaminobenzylamino)-2-t-butyl-3-(2H)pyridazinone hydrochloride] | – | – | SRS-A antagonism (SRS-A): 55%; Inhibition of anaphylactic bronchoconstriction ([2]; EA 10 mg/kg, 3% Tween 80): 72%; Inhibition of LTD4-induced bronchoconstriction (LTD4 [1]): 72.5%
CCN1CCN(C(=O)c2ccc(CNc3cnn(C(C)(C)C)c(=O)c3Cl)cc2)CC1 [compound 42] | 14% | – | –
CC(C)(C)n1ncc(NCc2ccc(C(=O)O)cc2)c(Cl)c1=O [Compound No. 23, 4-chloro-5-(4-carboxybenzylamino)-2-t-butyl-3(2H)pyridazinone] | 18% | – | –
CN1CCN(C(=O)c2ccc(CNc3cnn(C(C)(C)C)c(=O)c3Cl)cc2)CC1 [compound 41] | 15% | – | –
Cc1ccc(CNc2cnn(C(C)(C)C)c(=O)c2Cl)cc1 [Compound No. 3] | 64% | 42% | inhibition at 10 µg/mL (LTD4 [3]): 50%; Inhibition of LTD4-induced bronchoconstriction (LTD4 [1]): 60.6%
CC(C)(C)n1ncc(NCc2ccc(CN3CCOCC3)cc2)c(Cl)c1=O [compound 33] | 41% | 17% | –
CC(C)(C)n1ncc(NCc2ccc3c(c2)OCO3)c(Cl)c1=O [compound 18] | 74% | – | –
CCOC(=O)c1ccc(CNc2cnn(C(C)(C)C)c(=O)c2Cl)cc1 [Compound No. 52] | 72% | – | Inhibition of anaphylactic bronchoconstriction ([2]; EA 10 mg/kg, 3% Tween 80): 30%
Cc1cccc(CNc2cnn(C(C)(C)C)c(=O)c2Cl)c1 [Compound No. 2] | 47% | 84% | Inhibition of anaphylactic bronchoconstriction ([2]; EA 10 mg/kg, 3% Tween 80): 21%
CCN(CC)C(=O)c1ccc(CNc2cnn(C(C)(C)C)c(=O)c2Cl)cc1 [compound 38] | 31% | – | –
CCN1CCN(Cc2ccc(CNc3cnn(C(C)(C)C)c(=O)c3Cl)cc2)CC1 [compound 35] | 10% | – | LTC4 antagonism (LTC4; [4]): 37%
CC(C)(C)n1ncc(NCc2ccc(Cl)cc2)c(Cl)c1=O [compound 22] | 76% | 20% | Inhibition of anaphylactic bronchoconstriction ([2]; EA 10 mg/kg, 3% Tween 80): 23%
CCc1ccc(CNc2cnn(C(C)(C)C)c(=O)c2Cl)cc1 [Compound No. 4] | 73% | 55% | Lethal ratio (ddY strain male mice): 0/3
CC(C)(C)n1ncc(NCc2ccc(N3CCOCC3)cc2)c(Cl)c1=O [compound 30] | 53% | 13% | –
CCCc1c(OCC(O)COc2ccc3c(=O)cc(C(=O)O)oc3c2CCC)ccc(C(C)=O)c1O (stereo not shown) [FPL-55712, reference compound] | 88% | – | inhibition at 10 µg/mL (LTC4): 100%; Inhibition of anaphylactic bronchoconstriction ([2]; EA 0.1 mg/kg, Tween 80): 60%; Inhibition of anaphylactic bronchoconstriction ([2]; EA 10 mg/kg, 3% Tween 80): 27%; inhibition at 10 µg/mL (LTD4 [3]): 88%; Inhibition of LTD4-induced bronchoconstriction (LTD4 [1]): 100%
CCN(CC)Cc1ccc(CNc2cnn(C(C)(C)C)c(=O)c2Cl)cc1 [compound 32] | 18% | 20% | –
CN1CCN(Cc2ccc(CNc3cnn(C(C)(C)C)c(=O)c3Cl)cc2)CC1 [compound 34] | 19% | – | –
COc1ccc(CNc2cnn(C(C)(C)C)c(=O)c2Cl)cc1 [Compound No. 9] | 72% | – | Inhibition of anaphylactic bronchoconstriction ([2]; EA 10 mg/kg, 3% Tween 80): 35%; Inhibition of LTD4-induced bronchoconstriction (LTD4 [1]): 38%
CSc1ccc(CNc2cnn(C(C)(C)C)c(=O)c2Cl)cc1 [compound 21] | 77% | 36% | –
CCCOc1ccc(CNc2cnn(C(C)(C)C)c(=O)c2Cl)cc1 [compound 11] | 74% | 25% | Inhibition of anaphylactic bronchoconstriction ([2]; EA 10 mg/kg, 3% Tween 80): 21%
COc1ccc(CNc2cnn(C(C)(C)C)c(=O)c2Cl)cc1OC [Compound No. 16] | 55% | 96% | –
COCCNC(=O)c1ccc(CNc2cnn(C(C)(C)C)c(=O)c2Cl)cc1 [compound 55] | 12% | 14% | –
